Results taken from ChEMBL document CHEMBL3046182, “Development of a rapid resistance monitoring bioassay for codling moth larvae” (2012).
≈ marks a conversion by molar mass, not a printed value.

Tests used:
Format in all cases: functional
Cydia pomonella [1] = assay: Resistant ratio of LC50 for Cydia pomonella (codling moth) Holt neonate to Cydia pomonella (codling moth) Glibert neonate
Cydia pomonella [2] = assay: Insecticidal activity against po dosed 11 day-old larvae of spinetoram-selected Cydia pomonella (codling moth) reared on apple assessed as mortality measured after 4 days
Cydia pomonella [3] = assay: Insecticidal activity against po dosed 10 day-old larvae of Cydia pomonella (codling moth) Gilbert reared on apple assessed as mortality measured after 4 days
Cydia pomonella [4] = assay: Insecticidal activity against po dosed 10 day-old larvae of Chlorantraniliprole-selected Cydia pomonella (codling moth) reared on apple assessed as mortality measured after 4 days
Cydia pomonella [5] = assay: Insecticidal activity against po dosed 15 day-old larvae of Cydia pomonella (codling moth) reared on apple assessed as mortality measured after 4 days
Cydia pomonella [6] = assay: Insecticidal activity against po dosed 10 day-old larvae of Cydia pomonella (codling moth) lab-s reared on apple assessed as mortality measured after 4 days
Cydia pomonella [7] = assay: Insecticidal activity against po dosed fourth-instar larvae of Cydia pomonella (codling moth) Clear Creek abandoned measured after 4 days
Cydia pomonella [8] = assay: Insecticidal activity against po dosed Cydia pomonella (codling moth) Holt neonate measured after 4 days
Cydia pomonella [9] = assay: Insecticidal activity against po dosed 15 day-old larvae of Cydia pomonella (codling moth) lab-s reared on apple assessed as mortality measured after 4 days
Cydia pomonella [10] = assay: Insecticidal activity against po dosed 10 day-old larvae of Cydia pomonella (codling moth) lab-s measured after 4 days
Cydia pomonella [11] = assay: Insecticidal activity against po dosed Cydia pomonella (codling moth) Gilbert neonate measured after 4 days
Cydia pomonella [12] = assay: Resistant ratio of LC50 for fourth-instar larvae of Cydia pomonella (codling moth) Holt to fourth-instar larvae of Cydia pomonella (codling moth) Glibert
Cydia pomonella [13] = assay: Insecticidal activity against po dosed Cydia pomonella (codling moth) lab-s neonate measured after 4 days
Cydia pomonella [14] = assay: Insecticidal activity against po dosed Cydia pomonella (codling moth) Clear Creek abandoned neonate measured after 4 days
Cydia pomonella [15] = assay: Insecticidal activity against po dosed 10 day-old larvae of Cydia pomonella (codling moth) Owensby reared on apple assessed as mortality measured after 4 days
Cydia pomonella [16] = assay: Resistant ratio of LC50 for Cydia pomonella (codling moth) lab-s neonate to Cydia pomonella (codling moth) Glibert neonate
Cydia pomonella [17] = assay: Insecticidal activity against po dosed fourth-instar larvae of Cydia pomonella (codling moth) Holt measured after 4 days
Cydia pomonella [18] = assay: Insecticidal activity against po dosed fourth-instar larvae of Cydia pomonella (codling moth) Gilbert measured after 4 days
Cydia pomonella [19] = assay: Insecticidal activity against po dosed fourth-instar larvae of Cydia pomonella (codling moth) lab-s measured after 4 days
Cydia pomonella [20] = assay: Insecticidal activity against po dosed 20 day-old larvae of Cydia pomonella (codling moth) reared on apple assessed as mortality measured after 4 days
Cydia pomonella [21] = assay: Resistant ratio of LC50 for fourth-instar larvae of Cydia pomonella (codling moth) lab-s to fourth-instar larvae of Cydia pomonella (codling moth) Glibert
Cydia pomonella [22] = assay: Insecticidal activity against Cydia pomonella (codling moth) lab-s neonate compound applied topically measured after 4 days; conditions: topical, 96 h
Cydia pomonella [23] = assay: Insecticidal activity against fourth-instar larvae of Cydia pomonella (codling moth) lab-s compound applied topically measured after 4 days; conditions: topical, 96 h

**Q.** How did the RatioLC50 (Cydia pomonella [1]) turn out when COc1cccc(C(=O)NN(C(=O)c2cc(C)cc(C)c2)C(C)(C)C)c1C [METHOXYFENOZIDE] was run?
**A.** 24

**Q.** And the mortality (Cydia pomonella [2])?
**A.** 83.3%

**Q.** And the mortality (Cydia pomonella [3])?
**A.** 93.6%

**Q.** And the mortality (Cydia pomonella [4])?
**A.** 100%

**Q.** And the mortality (Cydia pomonella [5])?
**A.** 55.1%

**Q.** And the mortality (Cydia pomonella [6])?
**A.** 99.2%

**Q.** What about the LC50 (Cydia pomonella [7]) of the same compound?
**A.** 1.35 µg/mL (≈ 3.66 µM)

**Q.** And the LC99 (Cydia pomonella [7])?
**A.** 28.38 µg/mL

**Q.** And the LC50 (Cydia pomonella [8])?
**A.** 28.5 µg/mL (≈ 77.3 µM)

**Q.** And the LC99 (Cydia pomonella [8])?
**A.** 5320.8 µg/mL

**Q.** What about the mortality (Cydia pomonella [9]) of the same compound?
**A.** 98.4%

**Q.** And the LC95 (Cydia pomonella [10])?
**A.** 10 µg/mL (≈ 27.1 µM)

**Q.** What about the LC50 (Cydia pomonella [11]) of the same compound?
**A.** 9.5 µg/mL (≈ 25.8 µM)

**Q.** What about the LC99 (Cydia pomonella [11]) of the same compound?
**A.** 389.4 µg/mL

**Q.** And the RatioLC50 (Cydia pomonella [12])?
**A.** 16.7

**Q.** What about the LC50 (Cydia pomonella [13]) of the same compound?
**A.** 1.2 µg/mL (≈ 3.26 µM)

**Q.** What about the LC99 (Cydia pomonella [13]) of the same compound?
**A.** 14.15 µg/mL

**Q.** What about the LC50 (Cydia pomonella [14]) of the same compound?
**A.** 95 µg/mL (≈ 258 µM)

**Q.** And the LC99 (Cydia pomonella [14])?
**A.** 14.57 µg/mL

**Q.** What about the mortality (Cydia pomonella [15]) of the same compound?
**A.** 31.3%

**Q.** And the RatioLC50 (Cydia pomonella [16])?
**A.** 8

**Q.** And the LC50 (Cydia pomonella [17])?
**A.** 38.7 µg/mL (≈ 105 µM)

**Q.** What about the LC99 (Cydia pomonella [17]) of the same compound?
**A.** 5061.9 µg/mL

**Q.** What about the LC50 (Cydia pomonella [18]) of the same compound?
**A.** 15.2 µg/mL (≈ 41.3 µM)

**Q.** What about the LC99 (Cydia pomonella [18]) of the same compound?
**A.** 202 µg/mL

**Q.** What about the LC50 (Cydia pomonella [19]) of the same compound?
**A.** 2.3 µg/mL (≈ 6.24 µM)

**Q.** What about the LC99 (Cydia pomonella [19]) of the same compound?
**A.** 18.27 µg/mL

**Q.** And the mortality (Cydia pomonella [20])?
**A.** 50%

**Q.** What about the RatioLC50 (Cydia pomonella [21]) of the same compound?
**A.** 6.6

**Q.** O=C(NC(=O)c1c(F)cccc1F)Nc1ccc(OC(F)(F)C(F)OC(F)(F)F)c(Cl)c1 (configuration not stated) [NOVALURON] was tested. Which LC50 (Cydia pomonella [13]) did it give?
**A.** 1.08 µg/mL (≈ 2.19 µM)

**Q.** What about the LC50 (Cydia pomonella [19]) of the same compound?
**A.** 1.16 µg/mL (≈ 2.35 µM)

**Q.** For CNC(=O)c1cc(Cl)cc(C)c1NC(=O)c1cc(Br)nn1-c1ncccc1Cl [CHLORANTRANILIPROLE], which LC50 (Cydia pomonella [13]) is on record?
**A.** 0.2 µg/mL (≈ 0.414 µM)

**Q.** What about the LC50 (Cydia pomonella [19]) of the same compound?
**A.** 0.19 µg/mL (≈ 0.393 µM)

**Q.** Which LC50 (Cydia pomonella [13]) does the source give for CCO[C@@H]1[C@@H](OC)[C@H](C)O[C@@H](O[C@@H]2C[C@H]3CC[C@@H]4[C@@H](C=C5C(=O)[C@H](C)[C@@H](O[C@H]6CC[C@H](N(C)C)[C@@H](C)O6)CCC[C@H](CC)OC(=O)C[C@H]54)[C@@H]3C2)[C@@H]1OC.CCO[C@@H]1[C@@H](OC)[C@H](C)O[C@@H](O[C@H]2C[C@H]3[C@@H]4C=C5C(=O)[C@H](C)[C@@H](O[C@H]6CC[C@H](N(C)C)[C@@H](C)O6)CCC[C@H](CC)OC(=O)C[C@H]5[C@@H]4C=C(C)[C@@H]3C2)[C@@H]1OC here?
**A.** 0.09 µg/mL

**Q.** And the LC50 (Cydia pomonella [19])?
**A.** 0.16 µg/mL

**Q.** For C/C(=N\C#N)N(C)Cc1ccc(Cl)nc1 [ACETAMIPRID], which LC50 (Cydia pomonella [22]) is on record?
**A.** 0.26 µg/mL (≈ 1.17 µM)

**Q.** And the LC50 (Cydia pomonella [23])?
**A.** 1.12 µg/mL (≈ 5.03 µM)
